The source made the active and inactive calls. The rule behind the calls is not given here.
What was measured:
Staphylococcus aureus [1] = assay: Antibacterial activity against methicillin-resistant Staphylococcus aureus clinical isolate M12 infected in KM mouse assessed as reduction in IL-6 level at infection site at 10 mg/kg, sc measured after 24 hrs by ELISA; format: functional
[2] = Toxicity in KM mouse assessed as necrosis in renal tubular epithelial cells at 20 mg/kg, sc measured after 24 hrs by H and E staining based analysis; format: organism-based; conditions: in vivo
Staphylococcus aureus [3] = assay: Antibacterial activity against methicillin-resistant Staphylococcus aureus clinical isolate M22 by CLSI based micro-broth dilution method; format: functional
[4] = Toxicity in BALB/c mouse assessed as degeneration of renal tubular epithelial cells at 15 mg/kg, ip bid for 7 days; format: organism-based; conditions: in vivo, 168 h, time 7 day
Staphylococcus aureus [5] = assay: Antibacterial activity against methicillin-resistant Staphylococcus aureus clinical isolate M16 by CLSI based micro-broth dilution method; format: functional
[6] = Toxicity in BALB/c mouse assessed as animal death at 40 mg/kg, ip bid for 7 days; format: organism-based; conditions: in vivo, 168 h, time 7 day
[7] = Toxicity in KM mouse assessed as edema in lung epithelial cells at 20 mg/kg, sc measured after 24 hrs by H and E staining based analysis; format: organism-based; conditions: in vivo
[8] = Toxicity in KM mouse assessed as degeneration of lung epithelial cells at 20 mg/kg, sc measured after 24 hrs by H and E staining based analysis; format: organism-based; conditions: in vivo
[9] = Cytotoxicity against human L02 cells assessed as cell viability at 64 ug/ml by CCK8 assay relative to control; format: toxicity, cell-based; conditions: at 64 µg/mL, read-out: Activity
[10] = Toxicity in KM mouse assessed as edema in cardiac muscle fibers at 20 mg/kg, sc measured after 24 hrs by H and E staining based analysis; format: organism-based; conditions: in vivo
Staphylococcus aureus [11] = assay: Antibacterial activity against methicillin-resistant Staphylococcus aureus clinical isolate M12 infected in KM mouse assessed as intact skin at infection site at 10 mg/kg, sc measured after 24 hrs; format: functional, organism-based
Staphylococcus aureus [12] = assay: Antibacterial activity against methicillin-resistant Staphylococcus aureus clinical isolate M20 by CLSI based micro-broth dilution method; format: functional
Staphylococcus aureus [13] = assay: Antibacterial activity against methicillin-resistant Staphylococcus aureus clinical isolate M12 infected in sepsis BALB/c mouse model assessed as decrease in necrosis in renal tubular epithelial cells at 6 to 12 mg/kg, ip administered consecutively at 12 hr-interval for 24 hrs measured after 24 hrs post-last dose by H and E staining based analysis; format: functional, organism-based; conditions: dose 6-12 mg/kg, time 48.0 hrs
Staphylococcus aureus [14] = assay: Antibacterial activity against methicillin-resistant Staphylococcus aureus clinical isolate M12 infected in sepsis BALB/c mouse model assessed as decrease in pathological change in red medulla of spleen at 6 mg/kg, ip administered consecutively at 12 hr-interval for 24 hrs measured after 24 hrs post-last dose by H and E staining based analysis; format: functional, organism-based; conditions: time 48.0 hrs
Staphylococcus aureus [15] = assay: Antibacterial activity against methicillin-resistant Staphylococcus aureus clinical isolate M11 by CLSI based micro-broth dilution method; format: functional
[16] = Toxicity in KM mouse assessed as necrosis in lung epithelial cells at 20 mg/kg, sc measured after 24 hrs by H and E staining based analysis; format: organism-based; conditions: in vivo
Staphylococcus aureus [17] = assay: Antibacterial activity against Staphylococcus aureus ATCC 29213 by CLSI based micro-broth dilution method; format: functional
[18] = Toxicity in KM mouse assessed as edema in hepatocytes at 20 mg/kg, sc measured after 24 hrs by H and E staining based analysis; format: organism-based; conditions: in vivo
[19] = Toxicity in KM mouse infected with methicillin-resistant Staphylococcus aureus clinical isolate M12 assessed as histopathological abnormality in kidney at 5 to 10 mg/kg, sc measured after 24 hrs by H and E staining based analysis; format: organism-based; conditions: in vivo, dose 5-10 mg/kg
[20] = Toxicity in KM mouse assessed as change in WBC count at 20 mg/kg, sc measured after 24 hrs; format: organism-based; conditions: in vivo
[21] = Toxicity in BALB/c mouse assessed as edema in renal tubular epithelial cells at 15 mg/kg, ip bid for 7 days; format: organism-based; conditions: in vivo, 168 h, time 7 day
[22] = Toxicity in KM mouse assessed as change in creatinine level at 20 mg/kg, sc measured after 24 hrs; format: organism-based; conditions: in vivo
[23] = Toxicity in KM mouse assessed as skin abnormality at <20 mg/kg, sc; format: organism-based; conditions: in vivo
Staphylococcus aureus [24] = assay: Induction of membrane depolarization in methicillin-resistant Staphylococcus aureus clinical isolate M12 at 32 times MIC measured for 10 mins by DiSC3(5) dye based analysis; format: functional, organism-based
Staphylococcus aureus [25] = assay: Induction of membrane permeability in methicillin-resistant Staphylococcus aureus clinical isolate M12 at 8 to 32 times MIC measured for 15 mins by SYTOX Green dye based analysis; format: functional, organism-based
Staphylococcus aureus [26] = assay: Disruption of cell membrane in methicillin-resistant Staphylococcus aureus clinical isolate M12 assessed as fold increase in DNA leakage at 8 times MIC incubated for 4 hrs by […] relative to control; format: functional
Staphylococcus aureus [27] = assay: Bactericidal activity against methicillin-resistant Staphylococcus aureus clinical isolate M12 at 8 times MIC incubated upto 8 hrs by time-kill assay; format: functional, organism-based
Staphylococcus aureus [28] = assay: Antibacterial activity against methicillin-resistant Staphylococcus aureus clinical isolate M12 by CLSI based micro-broth dilution method; format: functional
[29] = Toxicity in BALB/c mouse assessed as pathological change in white medulla of spleen at 15 mg/kg, ip bid for 7 days; format: organism-based; conditions: in vivo, 168 h, time 7 day
Staphylococcus aureus [30] = assay: Antibacterial activity against methicillin-resistant Staphylococcus aureus clinical isolate M12 infected in KM mouse assessed as decrease in bacterial survival rate at 10 mg/kg, sc measured after 24 hrs by drop-plate counting method relative to control; format: functional
[31] = Toxicity in KM mouse assessed as degeneration of hepatocytes at 20 mg/kg, sc measured after 24 hrs by H and E staining based analysis; format: organism-based; conditions: in vivo
[32] = Toxicity in KM mouse infected with methicillin-resistant Staphylococcus aureus clinical isolate M12 assessed as histopathological abnormality in liver at 5 to 10 mg/kg, sc measured after 24 hrs by H and E staining based analysis; format: organism-based; conditions: in vivo, dose 5-10 mg/kg
[33] = Toxicity in BALB/c mouse assessed as necrosis in hepatocytes at 15 mg/kg, ip bid for 7 days; format: organism-based; conditions: in vivo, 168 h, time 7 day
[34] = Toxicity in KM mouse infected with methicillin-resistant Staphylococcus aureus clinical isolate M12 assessed as histopathological abnormality in spleen at 5 to 10 mg/kg, sc measured after 24 hrs by H and E staining based analysis; format: organism-based; conditions: in vivo, dose 5-10 mg/kg
[35] = Toxicity in BALB/c mouse assessed as necrosis in renal tubular epithelial cells at 15 mg/kg, ip bid for 7 days; format: organism-based; conditions: in vivo, 168 h, time 7 day

For C=CCc1cc(-c2ccc(OCCC[N+](C)(C)CC(=O)NCCCC)c(CC=C)c2)c2oc(=S)n(Cc3ccc(F)cc3)c2c1.[Br-], the Activity (Staphylococcus aureus [1]) was 66.7 pg/mL, the Activity [2] was “Non-Toxic” and the MIC (Staphylococcus aureus [3]) was 4 µg/mL. For the same molecule, the Activity [4] was “Non-Toxic”, the MIC (Staphylococcus aureus [5]) was 2 µg/mL and the Activity [6] was “Toxic”. For the same molecule, the Activity [7] was “Non-Toxic”, the Activity [8] was “Non-Toxic” and the viability at 64 ug/ml [9] was roughly 70%. For the same molecule, the Activity [10] was “Non-Toxic”, the Activity (Staphylococcus aureus [11]) was “Active” and the MIC (Staphylococcus aureus [12]) was 2 µg/mL. The Activity (Staphylococcus aureus [13]) was “Active”, the Activity (Staphylococcus aureus [14]) was “inactive” and the MIC (Staphylococcus aureus [15]) was 4 µg/mL. The Activity [16] was “Non-Toxic”, the MIC (Staphylococcus aureus [17]) was 2 µg/mL and the Activity [18] was “Non-Toxic”. The Activity [19] was “Non-Toxic”, the Activity [20] was “Non-Toxic” and the Activity [21] was “Non-Toxic”. The Activity [22] was “Non-Toxic”, the Activity [23] was “Non-Toxic” and the Activity (Staphylococcus aureus [24]) was “Active”. The Activity (Staphylococcus aureus [25]) was “Active”, the “fold change (FC)” value (Staphylococcus aureus [26]) was roughly 4 and the Activity (Staphylococcus aureus [27]) was “Active”. For the same molecule, the MIC (Staphylococcus aureus [28]) was 2 µg/mL, the Activity [29] was “Non-Toxic” and the Activity (Staphylococcus aureus [30]) was 99.67%. The Activity [31] was “Non-Toxic”, the Activity [32] was “Non-Toxic” and the Activity [33] was “Non-Toxic”. For the same molecule, the Activity [34] was “Non-Toxic” and the Activity [35] was “Non-Toxic”.
